# Read-outs that look alike come from different tables or passages of the source.
# Columns and labels:
# [1] = tested on: B16-F10 mouse metastatic melanoma cells; test: In vitro cytotoxic activity, CyQuant cell viability, 72 h; type: cell-based; conditions: for CC50: Mus musculus, B16-F10, 72 h, read-out: LC50 ± SD
# Method: Cell viability was measured using a CyQuant® Direct Cell Proliferation Assay Kit (Life Technologies, Grand Island, NY, USA) following the manufacturer’s instruction. Briefly, 5,000 cells per well were seeded onto a flat-bottom 96-well plate in 200 μL final volume. Six hours after seeding, the culture medium was replaced by the medium containing the tested compounds at 0.01 to 100 µM concentrations in DMSO (0.1% final concentration) during 72 h. Untreated cells (medium containing only 0.1% DMSO) were used as controls. At the end of the incubation, 100 μL of culture medium was removed from each well and replaced by detection reagent solution provided by the kit (which is a 1:5 mixture of the reagent CyQUANT®, direct nucleic acid stain and the reagent labeled as CyQUANT® direct background suppressor I). […] At least four independent experiments were performed for each concentration.
# 15-sLOX = target: T1, 15-sLOX (Glycine max, UniProt P08170); test: In vitro 15-sLOX enzyme assay (absorbance at 234 nm); type: biochemical; conditions: Flavanones at 10 µM (table footnote); method: 5 µg/ml
# T1 construct: purchased Cayman Chemical Item No. 60712
# T1 sequence (P08170 1-839): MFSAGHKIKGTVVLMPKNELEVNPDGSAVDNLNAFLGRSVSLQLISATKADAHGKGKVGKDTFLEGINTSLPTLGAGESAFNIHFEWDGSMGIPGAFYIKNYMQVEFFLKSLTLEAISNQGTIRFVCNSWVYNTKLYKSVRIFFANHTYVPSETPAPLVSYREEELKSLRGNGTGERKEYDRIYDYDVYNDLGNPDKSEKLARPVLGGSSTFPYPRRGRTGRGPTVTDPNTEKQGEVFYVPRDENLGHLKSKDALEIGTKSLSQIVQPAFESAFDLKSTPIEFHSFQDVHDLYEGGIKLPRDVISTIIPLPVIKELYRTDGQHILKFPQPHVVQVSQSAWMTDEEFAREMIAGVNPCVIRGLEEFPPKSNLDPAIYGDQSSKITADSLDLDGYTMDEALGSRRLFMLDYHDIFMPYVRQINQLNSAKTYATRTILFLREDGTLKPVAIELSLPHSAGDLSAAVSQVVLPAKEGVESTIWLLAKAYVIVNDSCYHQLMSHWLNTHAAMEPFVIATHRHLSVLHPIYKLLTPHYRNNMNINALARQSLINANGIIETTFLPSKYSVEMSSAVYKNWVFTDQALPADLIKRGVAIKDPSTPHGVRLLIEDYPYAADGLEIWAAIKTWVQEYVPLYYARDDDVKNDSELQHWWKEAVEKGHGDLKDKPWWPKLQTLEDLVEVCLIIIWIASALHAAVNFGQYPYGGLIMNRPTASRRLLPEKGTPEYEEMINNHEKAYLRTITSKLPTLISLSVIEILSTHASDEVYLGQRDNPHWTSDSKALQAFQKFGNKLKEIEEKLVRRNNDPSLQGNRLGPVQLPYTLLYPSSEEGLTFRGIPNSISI
# Method: The activity of 15-sLOX (Cayman Chemical Item No. 60712) was determined following the formation of reaction products at 234 nm (ϵ = 25,000 M^-1 cm^-1) in a Perkin-Elmer Lambda 25 UV/Vis spectrophotometer. All reactions were performed at a final volume of 2 ml and were constantly stirred using a magnetic bar at room temperature. The reaction medium used contained 25 mM HEPES buffer (pH 7.4), Triton X-100 0.01%, and the arachidonic acid (AA) substrate at a 10 µM concentration determine preliminary percent inhibition (%I). AA concentration was determined quantitatively by allowing the enzymatic reaction to go to completion. The reaction was carried out by adding the inhibitor dissolved in DMSO (5 µg/ml in the reaction medium) to the bucket with the substrate buffer, and finally the enzyme was added. Assays were performed in duplicate on three different days. GraphPad Prism Demo V.7 performed the graphics for IC50 and kinetics studies ([GraphPad-Software-Inc., 2017]).
# [2] = In vitro cytotoxic activity, CyQuant cell viability, 72 h; type: cell-based; conditions: mouse
# Method: (§1) The used cell lines include MDA-MB-231 human breast adenocarcinoma cells, B16-F10 mouse metastatic melanoma cells and MEF primary mouse embryonic fibroblast. Cells were maintained in a DMEM high glucose medium (Mediatech, Manassas, VA, USA) supplemented with 10% (MDA-MB-231 and B16-F10) or 15% (MEF) heat-inactivated fetal bovine serum (HyClone Laboratories, South Logan, USA), 100 IU ml^-1 penicillin and 100 μg ml^-1 streptomycin while maintained at 37°C in a 5% CO2 humidified atmosphere. Cell viability was measured using a CyQuant® Direct Cell Proliferation Assay Kit (Life Technologies, Grand Island, NY, USA) following the manufacturer’s instruction. Briefly, 5,000 cells per well were seeded onto a flat-bottom 96-well plate in 200 μL final volume. Six hours after seeding, the culture medium was replaced by the medium containing the tested compounds at 0.01 to 100 µM concentrations in DMSO (0.1% final concentration) during 72 h. Untreated cells (medium containing only 0.1% DMSO) were used as controls. At the end of the incubation, 100 μL of culture medium was removed from each well and replaced by detection reagent solution provided by the kit (which is a 1:5 mixture of the reagent CyQUANT®, direct nucleic acid stain and the reagent labeled as CyQUANT® direct background suppressor I). Cells were incubated for 1 h and fluorescence emission was measured at 535 nm with excitation at 480 nm in a microplate reader (Infinite 200 PRO, Tecan, Grödig, Austria). At least four independent experiments were performed for each concentration. The results from each experiment were transformed into percentage of controls and the LC50 values were graphically obtained from the dose-response curves. The LC50 value was obtained adjusting the dose-response curve to sigmoidal curves (variable slope) using the GraphPad Prisma 6.0 software ([GraphPad-Software, 2015]).
# [3] = tested on: MDA-MB-231 human breast adenocarcinoma cells; test: as above; type: cell-based; conditions: for CC50: Homo sapiens, MDA-MB-231, 72 h, read-out: LC50 ± SD
# Method: as §1
# E. coli ATCC25922 = test: Antibacterial MIC, CLSI microdilution, human pathogens; type: cell-based; conditions: Escherichia coli, 18 h, read-out: Minimum inhibitory concentration (MIC)
# Method: (§2) Briefly, stock solutions (5 mg/ml) of compounds in DMSO were diluted in Mueller-Hinton broth (MHB) to the different two-fold assay concentrations. […] The obtained solution was added to MHB and serially two-fold diluted in a 96-well microplate. A sample of 100 μL of inoculum 1.5 × 10^6 colony forming unit (CFU) ml^-1 in MHB was added and then incubated at 37°C for 18 h. The assay was repeated three times. Wells containing MHB, 100 μL of inoculum, and DMSO served as negative controls.
# E. coli 33.1 = test: as above; type: cell-based; conditions: Escherichia coli; E. coli 33.1 (multi-resistant); 18 h; read-out: Minimum inhibitory concentration (MIC)
# Method: as §2
Compound,"LC50 ± SD ([1]; B16-F10, 72 h)",CC50 [1] [µM],inhibition at 10 µM (15-sLOX) [%],"CC50 at 72 h ([2]; MEF (non-cancerous cells), 72 h, read-out: LC50 ± SD) [µM]",CC50 [3] [µM],"LC50 ± SD ([3]; MDA-MB-231, 72 h)",MIC (E. coli ATCC25922) [µg/mL],MIC (E. coli 33.1) [µg/mL],fold less cytotoxic activity against B16-F10 than etoposide ([1]; B16-F10) [fold],fold less cytotoxic activity against B16-F10 than taxol ([1]; B16-F10) [fold],selectivity towards B16-F10 as compared to non-cancerous cells (MEF) ([1]; LC50 MEF versus B16-F10) [fold],CC50 at 72 h [2] [µM]
"COc1cc(O)c2c(c1)O[C@H](c1ccc(O)cc1)CC2=O [Compound 1, (-)-(2S)-5,4’-dihydroxy-7-methoxyflavanone]",no significant cytotoxic activity,72 ± 7.16,7 ± 3.12,146 ± 23.4,~1100,no significant cytotoxic activity,> 100,> 100,,,,
"COc1cc(O)c2c(c1)O[C@H](c1ccc(O)c(O)c1)CC2=O [Compound 2, (-)-(2S)-5,3’,4’-trihydroxy-7-methoxyflavanone]",,8.07 ± 1.61,26 ± 3.96,,48.7 ± 9.32,,> 100,> 100,4.6,17,4,31 ± 3.69
